From patent publication US11999727B2 (Tango Therapeutics, Inc., priority 2020, dated 2024)
pIC50: −log10 of the molar value. Where two headings read alike, the source gives them in different places.

What was measured:
PRMT5 [1] = molecular target: T1, PRMT5 (Homo sapiens, UniProt O14744); assay: PRMT5 biochemical IC50 assay with no cofactor; conditions: PRMT5, no cofactor
T1 construct: purchased Viva (custom protein)
From the text: Table 1 indicates IC50 values (μM) against PRMT5 for exemplary compounds in the presence of SAM as cofactor, with no cofactor, and with MTA as cofactor, respectively (columns 4-6). […] Ki values can be calculated from the IC50 values as described in the Examples section. As detailed in the Examples section, for the assay performed in the presence of SAM, IC50=Ki×1.5 (Ki=IC50/1.5).

[2] = test system: HAP1 MTAP-deleted cell line; assay: Viability assay, MTAP-deleted cell line; format: cell-based; conditions: read-out: HAP1 MTAP deleted viability
From the text: Table 1 additionally indicates IC50 values in a viability assay for the MTAP-deleted cell line (column 10), indicating the effect of treatment with compound on cell survival.

[3] = test system: HAP1 MTAP-deleted cell line; assay: SDMA in-cell western assay, HAP1 MTAP-deleted; format: cell-based; conditions: for pIC50: HAP1 MTAP-deleted; for MTAP intact/deleted ratio: IC50 ratio HAP1 MTAP-intact / HAP1 MTAP-deleted
Summary of the method: (§1)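 MTAP-null vs endogenous-MTAP HAP1 isogenic cells; in-cell western SDMA readout; IC50 per line.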

PRMT5 [4] = molecular target: T1, PRMT5; assay: PRMT5 biochemical IC50 assay with MTA as cofactor; conditions: PRMT5, MTA as cofactor; read-out: MTA IC50
[5] = test system: HAP1 MTAP-intact cell line; assay: SDMA in-cell western assay, HAP1 MTAP-intact; format: cell-based; conditions: HAP1 MTAP-intact, read-out: MTAP HAP1 intact IC50
Summary of the method: as §1

PRMT5 [6] = molecular target: T1, PRMT5; assay: PRMT5 biochemical IC50 assay with SAM as cofactor; conditions: PRMT5, SAM as cofactor; read-out: SAM IC50
[7] = read-out: No Cofactor/ rel IC50
[8] = Homo sapiens, HAP1, viability, HAP1 MTAP-deleted cell line
[9] = Homo sapiens, HAP1, SDMA in-cell western, read-out: HAP 1 MTAP deleted IC50
[10] = Homo sapiens, HAP1, SDMA in-cell western
[11] = Homo sapiens, HAP1, viability assay, MTAP-deleted cell line
[12] = Homo sapiens, HAP1, viability IC50, MTAP-deleted cell line
[13] = Homo sapiens, HAP1, SDMA in-cell western, read-out: HAP1 MTAP deleted IC50
[14] = Homo sapiens, HAP1, viability assay, HAP1 MTAP-deleted

T1 sequence (O14744 whole entry): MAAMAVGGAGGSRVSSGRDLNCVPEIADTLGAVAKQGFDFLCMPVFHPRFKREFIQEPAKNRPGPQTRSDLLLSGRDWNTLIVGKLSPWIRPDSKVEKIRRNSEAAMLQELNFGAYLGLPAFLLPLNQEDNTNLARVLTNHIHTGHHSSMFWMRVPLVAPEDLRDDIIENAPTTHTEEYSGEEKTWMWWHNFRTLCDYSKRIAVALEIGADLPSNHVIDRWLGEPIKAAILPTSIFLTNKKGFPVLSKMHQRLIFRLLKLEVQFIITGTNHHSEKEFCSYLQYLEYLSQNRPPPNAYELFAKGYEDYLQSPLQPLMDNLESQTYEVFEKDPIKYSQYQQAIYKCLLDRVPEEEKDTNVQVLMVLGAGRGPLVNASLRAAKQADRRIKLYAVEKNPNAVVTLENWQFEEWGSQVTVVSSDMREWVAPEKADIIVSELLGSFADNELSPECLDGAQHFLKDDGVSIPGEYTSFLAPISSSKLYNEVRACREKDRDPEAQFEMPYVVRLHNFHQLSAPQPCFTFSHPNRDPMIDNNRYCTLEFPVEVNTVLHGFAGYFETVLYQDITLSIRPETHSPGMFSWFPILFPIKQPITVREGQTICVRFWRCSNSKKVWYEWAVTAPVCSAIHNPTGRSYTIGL
T1 sequence (Q9BQA1 whole entry partner): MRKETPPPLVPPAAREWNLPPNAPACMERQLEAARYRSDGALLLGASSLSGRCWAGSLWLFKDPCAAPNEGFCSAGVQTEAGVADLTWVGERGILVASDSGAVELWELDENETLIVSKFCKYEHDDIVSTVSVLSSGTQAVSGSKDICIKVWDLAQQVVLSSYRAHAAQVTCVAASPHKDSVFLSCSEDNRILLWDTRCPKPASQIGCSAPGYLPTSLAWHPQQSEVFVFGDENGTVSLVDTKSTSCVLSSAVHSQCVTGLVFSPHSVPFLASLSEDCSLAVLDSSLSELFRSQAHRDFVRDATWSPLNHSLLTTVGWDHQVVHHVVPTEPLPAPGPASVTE

| SMILES | pIC50 (PRMT5 [1]; [7]) | pIC50 [2, 8] | pIC50 [3, 9] | MTAP intact/deleted ratio ([3]; SDMA in-cell western) | pIC50 (PRMT5 [4]) | pIC50 [5, 10] | pIC50 (PRMT5 [6]) | pIC50 [2, 11] | pIC50 (PRMT5 [1]; read-out: No Cofactor/rel IC50) | pIC50 [2, 12] | pIC50 [3, 13] | pIC50 [2, 14] | pIC50 ([2]; viability assay, HAP1 MTAP-deleted) | pIC50 ([3]; SDMA in-cell western, read-out: HAP1 MTAP deleted IC50) | pIC50 ([5]; SDMA in-cell western) |
| --- | --- | --- | --- | --- | --- | --- | --- | --- | --- | --- | --- | --- | --- | --- | --- |
| C[C@@H]1CC[C@@H](c2ccc3cn(C)nc3c2)N(C(=O)C(=O)Nc2cnc(N)c(C3CC3)c2)C1 (single isomer, unassigned) [Compound 1403] | > 7.30 | > 6.00 | > 7.00 | A (an IC50 ratio greater than or equal to 10 fold) | > 7.30 | 6.00 to 7.00 | 6.30 to 7.30 |  |  |  |  |  |  |  |  |
| NC(=O)c1cncc(NC(=O)C(=O)N2C[C@@H]3CC[C@@H](C3)[C@@H]2c2cccs2)c1 (racemic) [Compound 79, 5-[[2-oxo-2-[(1S,4S,5R)-4-(2-thienyl)-3-azabicyclo[3.2.1]octan-3-yl]acetyl]amino]pyridine-3-carboxamide] | < 6.30 |  | 6.00 to 7.00 | A (an IC50 ratio greater than or equal to 10 fold) | 6.30 to 7.30 | < 6.00 | 6.30 to 7.30 | < 5.00 |  |  |  |  |  |  |  |
| COCCc1nc2cc([C@@H]3CC[C@@H](C)CN3C(=O)C(=O)Nc3cnc(N)c(C4CC4)c3)ccc2s1 (single isomer, unassigned) [Compound 1332] | 6.30 to 7.30 | > 6.00 | > 7.00 |  | > 7.30 | 6.00 to 7.00 | 6.30 to 7.30 |  |  |  |  |  |  |  |  |
| Cc1ncc(NC(=O)C(=O)N2C[C@H](C)CC[C@H]2c2ccc3c(c2)CCC(=O)N3)cc1Cl (racemic) [Compound 639, N-(5-Chloro-6-methyl-3-pyridyl)-2-[(2R,5S)-5-methyl-2-(2-oxo-3,4-dihydro-1H-quinolin-6-yl)-1-piperidyl]-2-oxo-acetamide] |  |  | > 7.00 | A (an IC50 ratio greater than or equal to 10 fold) | 6.30 to 7.30 | < 6.00 | 6.30 to 7.30 |  | 6.30 to 7.30 | 5.00 to 6.00 |  |  |  |  |  |
| Cc1cc(NC(=O)C(=O)N2C[C@H](C)CC[C@H]2c2cccnc2)cnc1N (single isomer, unassigned) [Compound 301] |  |  |  | B (an IC50 ratio greater than or equal to 3 fold but lower than 10 fold) | > 7.30 | 6.00 to 7.00 | 6.30 to 7.30 | 5.00 to 6.00 | 6.30 to 7.30 |  | > 7.00 |  |  |  |  |
| Cc1ccc([C@@H]2CC(F)(F)[C@@H](C)CN2C(=O)C(=O)Nc2cncc(C(N)=O)c2)cn1 (single isomer, unassigned) [Compound 946] |  |  | < 6.00 | B (an IC50 ratio greater than or equal to 3 fold but lower than 10 fold) | < 6.30 | < 6.00 | < 6.30 | < 5.00 | < 6.30 |  |  |  |  |  |  |
| Cc1cc(NC(=O)C(=O)N2C[C@H](C)CC[C@H]2c2cc3[nH]ncc3s2)cnc1N (single isomer, unassigned) [Compound 826] |  |  |  | B (an IC50 ratio greater than or equal to 3 fold but lower than 10 fold) | 6.30 to 7.30 | < 6.00 | < 6.30 |  | < 6.30 |  | < 6.00 | < 5.00 |  |  |  |
| CC(=O)Nc1ccc([C@@H]2CC[C@@H](C)CN2C(=O)C(=O)Nc2cnc(N)c(C)c2)cn1 (single isomer, unassigned) [Compound 927] |  |  | < 6.00 | C (an IC50 ratio of less than 3 fold) | < 6.30 | < 6.00 | < 6.30 | < 5.00 | < 6.30 |  |  |  |  |  |  |
| [H][C@]1([C@]2([H])C[C@@]3(C[C@H](O)C3)C2)CC[C@H](C)CN1C(=O)C(=O)Nc1cnc(N)c(C)c1 (single isomer, unassigned) [Compound 768] |  |  |  | B (an IC50 ratio greater than or equal to 3 fold but lower than 10 fold) | 6.30 to 7.30 |  | 6.30 to 7.30 |  | 6.30 to 7.30 |  |  |  | < 5.00 | 6.00 to 7.00 | < 6.00 |
| COc1ncc(NC(=O)C(=O)N2C[C@@H](C)CC[C@@H]2c2ccc3sc(C[C@@H](C)N(C)C)nc3c2)cc1C(N)=O [Compound 1317, 5-(2-((2R,5S)-2-(2-((R)-2-(dimethylamino)propyl)benzo[d]thiazol-5-yl)-5-methylpiperidin-1-yl)-2-oxoacetamido)-2-methoxynicotinamide] | > 7.30 | > 6.00 | > 7.00 | A (an IC50 ratio greater than or equal to 10 fold) | > 7.30 | > 7.00 | 6.30 to 7.30 |  |  |  |  |  |  |  |  |
| COc1ncc(NC(=O)C(=O)N2C[C@H](C)CC[C@H]2c2ccc(C(N)=O)s2)cc1C(N)=O (single isomer, unassigned) [Compound 844] |  |  |  | C (an IC50 ratio of less than 3 fold) | < 6.30 | < 6.00 | < 6.30 |  | < 6.30 |  | < 6.00 | < 5.00 |  |  |  |
| CNC(=O)c1cccc([C@H]2CC[C@H](C)CN2C(=O)C(=O)Nc2cncc(C)c2)c1 (racemic) [Compound 48, N-methyl-3-[(2R,5S)-5-methyl-1-[2-[(5-methyl-3-pyridyl)amino]-2-oxo-acetyl]-2-piperidyl]benzamide] | 6.30 to 7.30 |  | < 6.00 | C (an IC50 ratio of less than 3 fold) | 6.30 to 7.30 | < 6.00 | 6.30 to 7.30 | < 5.00 |  |  |  |  |  |  |  |
| Cc1cc(NC(=O)C(=O)N2C[C@H]3CC[C@H](C3)[C@H]2c2ccccc2)cnc1N (single isomer, unassigned) [Compound 65] | 6.30 to 7.30 |  | > 7.00 | A (an IC50 ratio greater than or equal to 10 fold) | 6.30 to 7.30 | < 6.00 | 6.30 to 7.30 | 5.00 to 6.00 |  |  |  |  |  |  |  |
| CCc1cc(NC(=O)C(=O)N2C[C@H](C)CC[C@H]2c2ccc3[nH]ncc3c2)cnc1N (single isomer, unassigned) [Compound 579] |  |  | < 6.00 | B (an IC50 ratio greater than or equal to 3 fold but lower than 10 fold) | < 6.30 | < 6.00 | < 6.30 |  | < 6.30 | < 5.00 |  |  |  |  |  |
| C[C@H]1CC[C@H](c2csc3ccccc23)N(C(=O)C(=O)Nc2cncc(C(N)=O)c2)C1 (single isomer, unassigned) [Compound 466] |  |  |  | C (an IC50 ratio of less than 3 fold) | < 6.30 | < 6.00 | < 6.30 | < 5.00 | < 6.30 |  | < 6.00 |  |  |  |  |
| Cc1cc(NC(=O)C(=O)N2C[C@H](C)CC[C@H]2c2cccc3[nH]ncc23)cnc1N (racemic) [Compound 690, rac-N-(6-amino-5-methyl-3-pyridyl)-2-[(2S,5R)-2-(1H-indazol-4-yl)-5-methyl-1-piperidyl]-2-oxo-acetamide] |  |  | 6.00 to 7.00 | A (an IC50 ratio greater than or equal to 10 fold) | > 7.30 | < 6.00 | 6.30 to 7.30 |  | 6.30 to 7.30 | 5.00 to 6.00 |  |  |  |  |  |
